Reference: patent US20190142810A1, “MITOCHONDRIAL INHIBITORS FOR THE TREATMENT OF PROLIFERATION DISORDERS” (Basilea Pharmaceutica International AG, priority 2016, published 2019)

Columns and labels:
HeLa galactose cells = experiment: Cell growth and proliferation assay of HeLa galactose cells (crystal violet); assay type: cell-based; conditions: 72 hours incubation, crystal violet staining, absorbance at 590 nm
In short: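 HeLa cells adapted stepwise over three weeks to glucose-free galactose medium plus 10 mM galactose, seeded at 2000 cells/well and treated 72 h with compounds (0.001% DMSO) at 37° C. Growth read by crystal violet staining, dye solubilized and absorbance at 590 nm; IC50 from concentration-response curves.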

[1] = test system: Oxygen consumption (mitochondrial function); experiment: Oxygen consumption assay (MitoXpress probe); assay type: cell-based; conditions: MitoXpress probe signal, kinetic analysis at 37° C. for 5 hours, compared to untreated cells
In short: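 Cells seeded at 50′000/well, after 24 h given fresh media with inhibitor at a range of concentrations, then MitoXpress probe under mineral oil. Kinetic TRF read (380 nm excitation, 650 or 665 nm emission) at 37° C. for 5 hours. IC50 = concentration inhibiting 50% of probe signal versus untreated cells.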

Question: Which results are given for `Cc1ccc(CC2CCN(C(=O)Nc3nc(C)ns3)CC2)c(F)c1` [Example 27, 4-[(2-fluoro-4-methyl-phenyl)methyl]-N-(3-methyl-1,2,4-thiadiazol-5-yl)piperidine-1-carboxamide]?
Answer: IC50 (HeLa galactose cells; Homo sapiens, HeLa, 72 h): 59 nM; IC50 ([1]; 5 h): 83 nM

Question: `Cc1cc(NC(=O)N2CCC(Cc3ccc(Cl)cc3F)CC2)sn1` [Example 63, 4-[(4-chloro-2-fluoro-phenyl)methyl]-N-(3-methylisothiazol-5-yl)piperidine-1-carboxamide] was tested. Which IC50 (HeLa galactose cells; Homo sapiens, HeLa, 72 h) did it give?
Answer: 20 nM

Question: What about the IC50 ([1]; 5 h) of the same compound?
Answer: 56 nM

Question: For `Cc1ccc(CC2CCN(C(=O)Nc3nc(C)ns3)CC2)c(C)c1` [Example 12], which IC50 (HeLa galactose cells; Homo sapiens, HeLa, 72 h) is on record?
Answer: 19 nM

Question: And the IC50 ([1]; 5 h)?
Answer: 500 nM

Question: Which IC50 (HeLa galactose cells; Homo sapiens, HeLa, 72 h) does the source give for `Cc1nsc(NC(=O)N2CC/C(=C\c3ccc(Cl)cc3F)C(C)C2)n1` (stereo not drawn) [Example 82, (4E)-4-[(4-chloro-2-fluoro-phenyl)methylene]-3-methyl-N-(3-methyl-1,2,4-thiadiazol-5-yl)piperidine-1-carboxamide] here?
Answer: 31 nM

Question: What about the IC50 ([1]; 5 h) of the same compound?
Answer: 78 nM

Question: Which IC50 (HeLa galactose cells; Homo sapiens, HeLa, 72 h) does the source give for `CCc1cc(NC(=O)N2CCC(=Cc3c(F)cc(C#N)cc3F)CC2)ccn1` [Example 179, 4-[(4-cyano-2,6-difluoro-phenyl)methylene]-N-(2-ethyl-4-pyridyl)piperidine-1-carboxamide] here?
Answer: 11 nM

Question: What about the IC50 ([1]; 5 h) of the same compound?
Answer: 41 nM

Question: For `Cc1nsc(NC(=O)N2CCC(C(=O)c3ccc(F)cc3F)CC2)n1` [Example 75, 4-(2,4-difluorobenzoyl)-N-(3-methyl-1,2,4-thiadiazol-5-yl)piperidine-1-carboxamide], which IC50 (HeLa galactose cells; Homo sapiens, HeLa, 72 h) is on record?
Answer: 54 nM

Question: What about the IC50 ([1]; 5 h) of the same compound?
Answer: 59 nM

Question: Which results are given for `CCc1nsc(NC(=O)N2CCC(Cc3c(F)cc(N(C)C)cc3F)CC2)n1` [Example 152, 4-[[4-(dimethylamino)-2,6-difluoro-phenyl]methyl]-N-(3-ethyl-1,2,4-thiadiazol-5-yl)piperidine-1-carboxamide]?
Answer: IC50 (HeLa galactose cells; Homo sapiens, HeLa, 72 h): 19 nM; IC50 ([1]; 5 h): 39 nM

Question: Which results are given for `Cc1cc(NC(=O)N2CCC(Cc3c(F)cc(Cl)cc3F)CC2)ccn1` [Example 145]?
Answer: IC50 (HeLa galactose cells; Homo sapiens, HeLa, 72 h): 15 nM; IC50 ([1]; 5 h): 106 nM

Question: With `Cc1nsc(NC(=O)N2CCC(Cc3ccc(C(C)C)cc3)CC2)n1` [Example 16] as the compound, how does the IC50 (HeLa galactose cells; Homo sapiens, HeLa, 72 h) read?
Answer: 260 nM

Question: What about the IC50 ([1]; 5 h) of the same compound?
Answer: 326 nM

Question: Which results are given for `COc1ccc(C(=O)C2CCN(C(=O)Nc3nc(C)ns3)CC2)cc1` [Example 76]?
Answer: IC50 (HeLa galactose cells; Homo sapiens, HeLa, 72 h): 190 nM; IC50 ([1]; 5 h): 332 nM

Question: For `COc1ccc(C=C2CCCN(C(=O)Nc3nc(C)ns3)CC2)c(F)c1` [Example 103], which IC50 (HeLa galactose cells; Homo sapiens, HeLa, 72 h) is on record?
Answer: 71 nM

Question: What about the IC50 ([1]; 5 h) of the same compound?
Answer: 156 nM

Question: For `Cc1nsc(NC(=O)N2CCC(=Cc3ccc(CO)cc3F)CC2)n1` [Example 89, 4-[[2-fluoro-4-(hydroxymethyl)phenyl]methylene]-N-(3-methyl-1,2,4-thiadiazol-5-yl)piperidine-1-carboxamide], which IC50 (HeLa galactose cells; Homo sapiens, HeLa, 72 h) is on record?
Answer: 228 nM

Question: What about the IC50 ([1]; 5 h) of the same compound?
Answer: 352 nM

Question: `Cc1nsc(NC(=O)N2CCC(=Cc3c(F)cc(Cl)cc3F)CC2)n1` [Example 26, 4-[(4-chloro-2,6-difluoro-phenyl)methylene]-N-(3-methyl-1,2,4-thiadiazol-5-yl)piperidine-1-carboxamide] was tested. Which IC50 (HeLa galactose cells; Homo sapiens, HeLa, 72 h) did it give?
Answer: 15 nM

Question: And the IC50 ([1]; 5 h)?
Answer: 23 nM

Question: Which IC50 (HeLa galactose cells; Homo sapiens, HeLa, 72 h) does the source give for `Cc1nsc(NC(=O)N2CCCN(Cc3ccc(Cl)cc3F)CC2)n1` [Example 51] here?
Answer: 67 nM

Question: And the IC50 ([1]; 5 h)?
Answer: 182 nM

Question: What does the source list for `Cc1nsc(NC(=O)N2CCC(Cc3ccc(Cl)cc3F)C(C)C2)n1` (single isomer, unassigned) [Example 84b, 4-[(4-chloro-2-fluoro-phenyl)methyl]-3-methyl-N-(3-methyl-1,2,4-thiadiazol-5-yl)piperidine-1-carboxamide]?
Answer: IC50 (HeLa galactose cells): 75 nM; IC50 [1]: 121 nM

Question: How did the IC50 (HeLa galactose cells; Homo sapiens, HeLa, 72 h) turn out when `Cc1nsc(NC(=O)N2CCC(Cc3ccc(C(C)(C)C)cc3)CC2)n1` [Example 11] was run?
Answer: 193 nM

Question: And the IC50 ([1]; 5 h)?
Answer: 1300 nM

Question: With `Cc1nsc(NC(=O)N2CCC(=Cc3ccc(OC(F)(F)F)cc3F)CC2)n1` [Example 54] as the compound, how does the IC50 (HeLa galactose cells; Homo sapiens, HeLa, 72 h) read?
Answer: 186 nM

Question: And the IC50 ([1]; 5 h)?
Answer: 235 nM

Question: For `Cc1ccc(SC2CCN(C(=O)Nc3nc(C)ns3)CC2)cc1` [Example 7, N-(3-methyl-1,2,4-thiadiazol-5-yl)-4-(p-tolylsulfanyl)piperidine-1-carboxamide], which IC50 (HeLa galactose cells; Homo sapiens, HeLa, 72 h) is on record?
Answer: 142 nM

Question: What about the IC50 ([1]; 5 h) of the same compound?
Answer: 500 nM
